Series [1] concerns the target T1, Candida albicans PMT-1 enzyme (Candida albicans, UniProt O74189).
T1 construct: 25 μg of Candida albicans membrane protein; endogenous in cells
T1 sequence (O74189 1-877): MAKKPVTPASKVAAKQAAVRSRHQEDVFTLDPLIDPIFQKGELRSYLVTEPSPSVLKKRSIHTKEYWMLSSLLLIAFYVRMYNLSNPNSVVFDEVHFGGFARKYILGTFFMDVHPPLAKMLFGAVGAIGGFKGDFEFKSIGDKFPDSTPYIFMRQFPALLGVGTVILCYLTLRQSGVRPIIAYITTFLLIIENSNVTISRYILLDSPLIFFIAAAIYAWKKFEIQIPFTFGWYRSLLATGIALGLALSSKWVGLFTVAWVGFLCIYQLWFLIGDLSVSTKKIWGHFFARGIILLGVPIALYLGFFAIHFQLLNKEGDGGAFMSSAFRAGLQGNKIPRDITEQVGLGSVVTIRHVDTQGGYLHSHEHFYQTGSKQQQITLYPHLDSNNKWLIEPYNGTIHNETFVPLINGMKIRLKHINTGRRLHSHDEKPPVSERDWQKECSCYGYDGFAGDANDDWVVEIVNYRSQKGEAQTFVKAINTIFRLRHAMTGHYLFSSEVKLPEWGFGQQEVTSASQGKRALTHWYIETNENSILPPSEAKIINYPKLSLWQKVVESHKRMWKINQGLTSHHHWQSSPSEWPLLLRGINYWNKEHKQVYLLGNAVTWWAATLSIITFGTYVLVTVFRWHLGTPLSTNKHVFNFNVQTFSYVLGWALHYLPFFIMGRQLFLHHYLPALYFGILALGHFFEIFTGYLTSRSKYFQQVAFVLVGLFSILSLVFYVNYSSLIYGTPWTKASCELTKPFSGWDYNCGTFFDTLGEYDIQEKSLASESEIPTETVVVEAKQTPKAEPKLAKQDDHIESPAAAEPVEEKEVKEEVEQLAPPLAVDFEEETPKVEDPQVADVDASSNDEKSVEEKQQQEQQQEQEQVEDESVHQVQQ
Description: PMT-1 assay. The note with it: Candida albicans membrane protein, peptide DYATAV, dolicholphospho-[3H]-mannose, 60 minutes at 25° C., pH 8.0; read-out: PMT-1 Inhibition (IC50). The series is classed as biochemical. The procedure:
The assay method is based upon the transfer of a radiolabelled mannose moiety from dolicholphosphomannose onto a threonine hydroxyl residue in a short peptide, as catalysed by the Candida albicans PMT-1 enzyme. Dolicholphospho-[^3H]-mannose is synthesised enzymatically from GDP-[^3H]-mannose and purified by chloroform: methanol extraction.
100000 Dpm of the generated substrate is incubated with 400 μg phosphatidylcholine, 25 μg of peptide (DYATAV) and 25 μg of Candida albicans membrane protein in a final volume of 50 μl in 100 mM Tris/1 mM MgCl2 buffer, pH 8.0. After 60 minutes at 25° C., the reaction is stopped with 50 μl of methanol. The unreacted radiolabel is removed by the addition of 150 μl of 0.4 g/ml octadecyl-functionalised silica (C18) in methanol. The C18 material is removed by centrifugation and the activity transferred to the peptide is counted in the supernatant.

For series [2], the system named is Candida albicans (strain SC5314). The series can be described thus: G418 sensitivity assay. Format: cell-based. The note with it: G418 100 μg/ml, overnight at 37° C., OD600 nm, concentration giving 50% reduction in cell growth relative to culture with G418 alone. How it is done:
This assay is based upon the observed increased sensitivity of the pmt1−/− Candida strain to Geneticin (G418) (6). 100 μl of a 0.1OD600 nm culture of Candida albicans (strain SC5314) is placed into a 96 well plate in the presence or absence of varying concentrations of test compound. The compounds are initially dissolved in DMSO and added to the cultures at a final DMSO concentration of 1%. G418 is added to a final concentration of 100 μg/ml. In the absence of PMT1 inhibition, this concentration of G418 has no effect on the proliferation of the organism. The cultures are grown overnight at 37° C. and cell density is then estimated by an OD600 nm measurement. The effect of the test compound is calculated as the concentration that gives a 50% reduction in cell growth relative to the culture with G418 alone.

As usually defined, the IC50 is the midpoint of a concentration-inhibition curve. Regarding `CCCCCN(CCCCC)C(=O)c1cc(/C=C2\SC(=S)N(CC(=O)O)C2=O)ccc1OCc1ccccc1` [Example 34, 5-[[[3-(N,N-Dipentylamino)carbonyl-4-(phenylmethoxy)]-phenyl]methylene]-4-oxo-2-thioxo-3-thiazolidineacetic acid], the half-maximal inhibitory concentration (IC50) came out at 2500 nM in series [1] and 1500 nM in series [2].
For orientation: melting point means the temperature of the solid-liquid transition. The molecule `C[C@@H](c1ccccc1)N(Cc1ccccc1)C(=O)c1cc(/C=C2\SC(=S)N(CC(=O)O)C2=O)ccc1OCc1ccccc1` [Example 35, 5-[[[3-((S)-N-Benzyl-N-alpha-methylbenzylamino)carbonyl-4-(phenyl-methoxy)]-phenyl]methylene]-4-oxo-2-thioxo-3-thiazolidineacetic acid] yielded a melting point of 204 to 209 °C. Further, in series [1], the IC50 was found to be 600 nM. It took 650 nM to reach half-maximal inhibition in series [2] (IC50).
On to `CCCCCN(CCCCC)C(=O)c1cc(/C=C2\SC(=S)N(CC(=O)O)C2=O)ccc1OCc1ccc(F)cc1F` [Example 49, 5-[[[3-(N,N-Dipentylamino)carbonyl-4-[(2,4-difluorophenyl)-methoxy]]phenyl]methylene]-4-oxo-2-thioxo-3-thiazolidineacetic acid], for which the IC50 in series [1] and in series [2] was 700 nM throughout.
